Results taken from patent US5280015A, “2-substituted adenosines and 2-substituted adenosine 5'-carboxamides” (priority 1990, dated 1994).

What was measured:
[1] = biological target: T1, adenosine A2 receptors (Bos taurus, UniProt E1BKU0); assay: FITC-APEC fluorescent binding (association and saturation) to bovine striatal membranes
T1 construct: Striatal tissues obtained from bovine brain; tissue Pel-Freeze Biologicals, Rogers, Ark; host or cells: bovine striatal tissue
Excerpt: Compounds useful in fluorescent binding assays of adenosine A2 receptors in striatal membranes may be used to screen new ligands for affinity at these receptors, thus contributing to the development of new drugs specific or selective to this receptor. […] The following is an example.
Striatal tissues obtained from bovine brain (Pel-Freeze, Biologicals, Rogers, Ark.) were homogenized in 10 volumes of 0.32M sucrose using a Teflon pestle and glass tube (6-7 passes). The homogenate was centrifuged (4° C.) at 579×g (2,000 rpm) for 10 minutes 4° C.). The initial pellet (P1) was discarded and supernatant recentrifuged at 4° C. (16,000 rpm) for 1 hour. The resultant pellet (P2) was resuspended in ice-cold distilled water using a Brinkman Polytron (setting 6-7, for 3 seconds) and centrifuged (4° C.) at 37,059×g for 1 hour. The distilled water supernatant was decanted and the pellet was resuspended in buffer (50 mM TrisHCl, pH 7.4 at 4° C.) and centrifuged a final time for 1 hour. Tissue homogenates were […] at -80° C. for 1-3 days until binding assays were performed. Adenosine deaminase, (Boehringer Mannheim Biochemicals, Indianapolis, Ind.) from calf intestine was included (10 μ/mg protein, specific activity=200μ/mg) in the incubation media to eliminate endogenous adenosine. Protein quantities were assessed by using the Pierce BCA Protein Assay Reagent (Rockford, Ill.). Protein quantities were ~300μg/assay tube.
Fluorescence intensity (counts per second, cps) was measured using a SPEX Fluorolog Model 1680 0.22-m Double Spectrometer with DM3000 software (SPEX Industries, Edison, N.J.). Excitation and emission spectra were determined by comparing FITC-APEC (Compound 18, 1 μM) to buffer ([…] containing […], pH 7.4 or 8.1 at room temperature) or tissue suspension equivalent in concentration to that used for fluorescent ligand binding experiments. Excitation and emission maxima for FITC-APEC were 492 and 516 nm, respectively.
Association studies of FITC-APEC were performed by incubating (room temperature) striatal membranes in polypropylene tubes containing buffer (pH 7.4) and FITC-APEC (50 nM) for 5-120 minutes. […]
Quantitation (see McCabe et al. Faseb J., Vol. 4, pp 2934-2945, 1990) of FITC-APEC binding was performed by generating a standard line relating fluorescence intensity (cps) emitted to known concentrations (0.5-1024 nM) of FITC-APEC, in buffer ("free" ligand) or tissue suspension.
Bound ligand concentrations (μM) were estimated using linear regression analysis and mole quantities of FITC-APEC bound/mg protein were subsequently determined.

[2] = biological target: T2, A2 adenosine receptors (Bos taurus, UniProt E1BKU0); assay: Displacement of 125I-APNEA from bovine striatum A2 adenosine receptors; type: binding; set-up: bovine striatum A2 adenosine receptors; from tissue; host or cells: bovine striatum
T2 sequence (E1BKU0 1-401): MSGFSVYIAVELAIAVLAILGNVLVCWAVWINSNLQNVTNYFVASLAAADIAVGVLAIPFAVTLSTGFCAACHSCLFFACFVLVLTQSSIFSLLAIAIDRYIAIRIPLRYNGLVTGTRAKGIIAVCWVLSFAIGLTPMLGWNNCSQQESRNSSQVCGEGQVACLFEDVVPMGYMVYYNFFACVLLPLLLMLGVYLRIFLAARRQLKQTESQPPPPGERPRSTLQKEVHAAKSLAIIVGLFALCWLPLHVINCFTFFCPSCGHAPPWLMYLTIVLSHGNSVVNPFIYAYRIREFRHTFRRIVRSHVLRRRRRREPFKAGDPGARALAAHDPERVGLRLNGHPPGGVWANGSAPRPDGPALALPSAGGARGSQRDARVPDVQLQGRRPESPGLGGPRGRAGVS
Excerpt: FITC-APEC binding to bovine striatal membranes was saturable as illustrated by an isotherm representing bound ligand versus increasing concentrations of FITC-APEC (FIG. 1B).

[3] = tested on: A2-adenosine receptors; assay: Competitive binding assay in bovine brain using 125I-PAPA-APEC (striatal membranes); conditions: fluorescent probes; derivatives in general
Description: (§1) The filters were washed with three×3 ml aliquots of pH 7.2 buffer containing 50 mM HEPES, 10 mM Mg^+2, and 0.05% CHAPS. The filters were placed in polypropylene tubes and counted in a Packard gamma counter.

[4] = biological target: T2, A2 adenosine receptors; assay: as above; set-up: Bovine striatal membranes; from tissue; host or cells: bovine (calf) striatal membranes; conditions: bovine striatum; 11, 12 and 14: apparent Ki; read-out: Ki, inhibition of binding of 125I-PAPA-APEC at A2-receptors
Description: as §1

[5] = tested on: striatal A2-adenosine receptors; assay: Direct binding of 125I-PAPA-APEC to striatal A2-adenosine receptors in bovine brain; conditions: HPLC peak B
[6] = biological target: striatal A2-adenosine receptors; conditions: Barrington et al., 1989, cited from earlier work
[7] = bovine striatal membranes, fluorescence, 90 min, room temperature

T1 sequence (E1BKU0 1-401): as above

Row | saturability of binding ([1]; bovine striatal membranes, 16-256 nM) | Bmax [1, 7] | Kd [1, 7] | time to binding equilibrium ([1]; bovine striatum, room temperature, FITC-APEC 50 nM) | Ki [2] | affinity at A2-adenosine receptors [3] | Ki [4] | SMILES | specific binding and A2 receptor pharmacology [5] | Kd ([6]; bovine brain striatum) | degree of specific binding ([6]; striatal A2-adenosine receptors, bovine brain)
1 | saturable | 2.26 pmol/mg protein | 54.6 nM | ≤ 90 min | 59.8 ± 28 nM | high affinity | 59.8 ± 28 nM | CCNC(=O)[C@H]1O[C@@H](n2cnc3c(N)nc(NCCc4ccc(CCC(=O)NCCNC(=S)Nc5ccc(-c6c7ccc(=O)cc-7oc7cc(O)ccc67)c(C(=O)O)c5)cc4)nc32)[C@H](O)[C@@H]1O [Compound 18] | – | – | –
2 | – | – | – | – | – | – | – | CCNC(=O)[C@H]1O[C@@H](n2cnc3c(N)nc(NCCc4ccc(CCC(=O)NCCNC(=O)Cc5ccc(N)c([125I])c5)cc4)nc32)[C@H](O)[C@@H]1O [^125 I-PAPA-APEC] | display specific binding and the appropriate A2 receptor pharmacology | 1.4 nM | 60-80%
